In the supplement of paper PMC5579334:

Tests used:
HS-Sch-2 = assay: relative IC50 (inflection point of fitted dose-response curve, CellTiter-Glo viability, 72 h; top asymptote may be below 50% inhibition); higher = less potent
Method in brief: (§1)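 Viability was scored by CellTiter-Glo ATP luminescence, scaled from vehicle to positive-control wells, with duplicates averaged where present. The cells, MPNST lines and primary human Schwann cells at 750–1000 per well, sat 72 h at 37 °C, 5% CO2, in 384-well plates preprinted with each compound at five concentrations in 10-fold steps. Four-parameter logistic fits were run on the data. These fits give drug sensitivity score and relative IC50 censored at the top concentration, and percent inhibition is reported at the top concentration.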

YST-1 = assay: as above
Method in brief: as §1

S462 = assay: as above
Method in brief: as §1

HSC2 [1] = assay: as above
Method in brief: as §1

S1507-2 [2] = assay: as above
Method in brief: as §1

HSC1 [3] = assay: as above
Method in brief: as §1

HS-PSS [4] = assay: relative IC50 (inflection point of fitted dose-response curve, CellTox-Green cytotoxicity, 72 h; top asymptote may be below 50%); higher = less potent
Method in brief: (§2)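 MPNST cell lines and primary human Schwann cells were incubated 72 h at 37 °C in 384-well plates holding five 10-fold compound dilutions. CellTox-Green was added before seeding at a final 1:1000 dilution and reported fluorescence from DNA released by disrupted cells. Signals were scaled to vehicle and positive-control wells, and cultures failing plate quality control were dropped. Drug sensitivity score and relative IC50 come from four-parameter logistic fits, with IC50 censored at the top concentration.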

ST8814 [5] = assay: as above
Method in brief: as §2

STS26T [6] = assay: as above
Method in brief: as §2

HSC2 [7] = assay: as above
Method in brief: as §2

S1507-2 [8] = assay: as above
Method in brief: as §2

HSC1 [9] = assay: as above
Method in brief: as §2

ST8814 [10] = assay: relative IC50 (inflection point of fitted dose-response curve, CellTiter-Glo viability, 72 h; top asymptote may be below 50% inhibition); higher = less potent
Method in brief: as §1

STS26T [11] = assay: as above
Method in brief: as §1

HS-PSS [12] = assay: as above
Method in brief: as §1

Structure (SMILES)	relative IC50 (HS-Sch-2) [nM]	relative IC50 (YST-1) [nM]	relative IC50 (S462) [nM]	relative IC50 (HSC2 [1]) [nM]	relative IC50 (S1507-2 [2]) [nM]	relative IC50 (HSC1 [3]) [nM]	relative IC50 (HS-PSS [4]) [nM]	relative IC50 (ST8814 [5]) [nM]	relative IC50 (STS26T [6]) [nM]	relative IC50 (HSC2 [7]) [nM]	relative IC50 (S1507-2 [8]) [nM]	relative IC50 (HSC1 [9]) [nM]	relative IC50 (ST8814 [10]) [nM]	relative IC50 (STS26T [11]) [nM]	relative IC50 (HS-PSS [12]) [nM]
Cc1c(Cn2c(C)nc3c(C(=O)O)cc(N4CCOCC4)cc32)cccc1C(F)(F)F	> 10000	> 10000	> 10000	> 10000	931	> 10000	> 10000	> 10000	> 10000	> 10000	> 10000	> 10000	–	–	–
N#Cc1ccc(COC[C@H]2O[C@@H](n3c(NCc4ccc(Cl)c(Cl)c4)nc4c(N)ncnc43)[C@H](O)[C@@H]2O)cc1	> 10000	1240	–	261	> 10000	784	> 10000	> 10000	–	> 10000	> 10000	> 10000	> 10000	1100	–
Nc1nccc(-c2c(-c3ccc(F)cc3)ncn2C2CCCCC2)n1	3780	800	> 10000	> 10000	> 10000	> 10000	–	> 10000	–	> 10000	> 10000	> 10000	–	> 10000	–
O=C(Nc1ccc2[nH]nc(-c3ccncc3)c2c1)[C@@H]1CCN(CC(=O)N2CCN(c3ccc(-c4ncccn4)cc3)CC2)C1	773	2270	137	159	568	263	> 10000	675	–	–	1950	> 10000	234	822	677
COc1cc(O)c2c(c1)/C=C/C[C@H](O)[C@H](O)C(=O)/C=C\C[C@H](C)OC2=O [(5Z)-7-Oxozeaenol]	2790	2020	1660	1320	2450	1690	> 10000	–	3070	3900	3520	–	1330	1360	3820
CC[C@H](CC#N)OC(=O)N[C@@H](C)c1cccc(NC(=O)Nc2ccc(-c3cnco3)c(OC)c2)c1 [AVN944]	640	317	320	93.4	500	108	> 10000	886	–	> 10000	> 10000	> 10000	614	398	309
O=C1CN2Cc3c(ccc(Cl)c3Cl)N=C2N1 [Anagrelide]	144	> 10000	> 10000	134	> 10000	–	> 10000	> 10000	> 10000	–	> 10000	> 10000	–	> 10000	> 10000
CC(O)(CS(=O)(=O)c1ccc(F)cc1)C(=O)Nc1ccc(C#N)c(C(F)(F)F)c1 (stereo not drawn) [Bicalutamide]	–	> 10000	–	> 10000	> 10000	–	> 10000	> 10000	> 10000	> 10000	> 10000	> 10000	> 10000	–	–
CCNC(=O)CCC/C=C\C[C@@H]1[C@@H](/C=C/[C@@H](O)CCc2ccccc2)[C@H](O)C[C@@H]1O [Bimatoprost]	> 5500	> 5500	–	> 5500	> 5500	> 5500	> 5500	> 5500	> 5500	> 5500	> 5500	> 5500	> 5500	> 5500	> 5500
CCCCCOC(=O)Nc1nc(=O)n([C@@H]2O[C@H](C)[C@@H](O)[C@H]2O)cc1F [Capecitabine]	> 10000	> 10000	> 10000	> 10000	> 10000	> 10000	> 10000	> 10000	> 10000	> 10000	> 10000	> 10000	> 10000	–	> 10000
Cc1ccc(-c2cc(C(F)(F)F)nn2-c2ccc(S(N)(=O)=O)cc2)cc1 [Celecoxib]	> 10000	> 10000	> 10000	> 10000	> 10000	–	> 10000	> 10000	> 10000	> 10000	> 10000	> 10000	> 10000	> 10000	> 10000
O=C(O)CCCc1ccc(N(CCCl)CCCl)cc1 [Chlorambucil]	> 10000	–	> 10000	–	> 10000	–	> 10000	> 10000	> 10000	> 10000	> 10000	> 10000	> 10000	> 10000	> 10000
COc1cccc2c1C(=O)c1c(O)c3c(c(O)c1C2=O)C[C@@](O)(C(C)=O)C[C@@H]3O[C@H]1C[C@H](N)[C@H](O)[C@H](C)O1 [Daunorubicin]	117	27	49.3	72.5	146	120	> 1000	–	–	344	> 1000	366	101	71.6	122
Nc1ccccc1NC(=O)c1ccc(CNC(=O)OCc2cccnc2)cc1 [Entinostat]	3410	1240	1500	2560	2680	2340	–	3640	–	> 10000	3240	> 10000	3700	2740	3730
Cc1nc(C(=O)NCC(=O)O)c(O)c2ccc(Oc3ccccc3)cc12 [FG-4592]	2470	> 10000	> 10000	–	> 10000	–	> 10000	> 10000	> 10000	> 10000	> 10000	> 10000	> 10000	> 10000	1210
CC(C)C(=O)Nc1ccc([N+](=O)[O-])c(C(F)(F)F)c1 [Flutamide]	> 10000	> 10000	> 10000	> 10000	> 10000	–	> 10000	> 10000	> 10000	> 10000	> 10000	> 10000	> 10000	–	–
CS(=O)(=O)CCNCc1ccc(-c2ccc3ncnc(Nc4ccc(OCc5cccc(F)c5)c(Cl)c4)c3c2)o1 [Lapatinib]	> 1000	–	> 1000	> 1000	> 1000	> 1000	> 1000	> 1000	> 1000	> 1000	> 1000	> 1000	> 1000	–	> 1000
Oc1ccc2c(c1)CC[C@H](c1ccccc1)[C@@H]2c1ccc(OCCN2CCCC2)cc1 [Lasofoxifene]	> 1000	> 1000	–	> 1000	> 1000	> 1000	> 1000	> 1000	> 1000	> 1000	> 1000	> 1000	> 1000	> 1000	–
CC1(C)NC(=O)N(c2ccc([N+](=O)[O-])c(C(F)(F)F)c2)C1=O [Nilutamide]	–	> 10000	> 10000	> 10000	> 10000	–	> 10000	> 10000	> 10000	> 10000	> 10000	> 10000	> 10000	> 10000	–
O=C(Nc1cccnc1)N1CCC(Cc2cccc(Oc3ccc(C(F)(F)F)cn3)c2)CC1 [PF-3845]	3070	3520	–	1430	> 10000	1520	> 10000	> 10000	> 10000	–	> 10000	> 10000	–	–	1410
O=C(NC[C@H](O)CO)c1ccncc1Nc1ccc(I)cc1F [Pimasertib]	962	3800	507	846	476	730	> 10000	2060	–	> 10000	2160	–	971	241	2390
COc1cc(F)c(F)c(Nc2ccc(I)cc2F)c1NS(=O)(=O)C1(C[C@H](O)CO)CC1 [Refametinib]	1620	–	382	443	362	849	3270	1600	–	–	1860	> 10000	451	306	1800
N[C@@H](CSC(c1ccccc1)(c1ccccc1)c1ccccc1)C(=O)O [S-trityl-L-cysteine]	–	–	–	> 40000	> 40000	–	–	> 40000	> 40000	> 40000	> 40000	> 40000	> 40000	–	–
CN1CCN(CCOc2cc(OC3CCOCC3)c3c(Nc4c(Cl)ccc5c4OCO5)ncnc3c2)CC1 [Saracatinib]	2810	–	818	1530	1530	452	–	1550	–	8110	99.5	> 10000	1320	1110	1570
CC[C@H](CO)Nc1nc(NCc2ccccc2)c2ncn(C(C)C)c2n1 [Seliciclib]	–	> 10000	3610	3990	> 10000	–	–	> 10000	–	> 10000	> 10000	> 10000	> 10000	–	1670
CC(=O)Nc1cccc(-n2c(=O)n(C3CC3)c(=O)c3c(Nc4ccc(I)cc4F)n(C)c(=O)c(C)c32)c1 [Trametinib]	48.6	> 250	9.9	18.5	15.2	10.6	> 250	46.3	–	–	45.8	> 250	16	7.59	28.1
COc1cc2c(NC3CCN(C(C)C)CC3)nc(N3CCC(F)(F)CC3)nc2cc1OCCCN1CCCC1 [UNC0642]	2880	3190	2690	> 10000	1940	–	2960	3020	2910	> 10000	2900	> 10000	2970	3060	2600
Oc1ncc(N(CCCl)CCCl)c(O)n1 [Uracil mustard]	–	–	> 10000	> 10000	> 10000	> 10000	–	> 10000	> 10000	> 10000	> 10000	> 10000	–	> 10000	–
Clc1ccc(Nc2nnc(Cc3ccncc3)c3ccccc23)cc1 [Vatalanib]	–	–	–	–	> 10000	> 10000	> 10000	> 10000	> 10000	> 10000	> 10000	> 10000	> 10000	> 10000	–
